Numbered stars: 1 amine (or outer) side, 2 acyl side, 3 side chain; on linkers, the order of the positions; unused ones are H or OH. Bridge positions count the residues as written; N and C are the ends. Square brackets hold non-standard residues; d marks the D form. Peptide text beside a SMILES is read from it. I, II: the chains in the order shown. Actinocin(9to1) = Cc1c2oc3c(C)ccc(C(=O)[*:1])c3nc-2c(C(=O)[*:2])c(N)c1=O; NMeV = CN[C@H](C(=O)O)C(C)C; Sar = CNCC(=O)O
Experiments:
Calf Thymus DNA = assay: Thermal denaturation (ΔTm) of DNA-drug complex; format: binding; conditions: 0.01 phosphate buffer pH 7.0, 5% Me2SO; in °C (unit assumed)
Procedure: ^a ΔTm = Tm of DNAdrug complex minus Tm of
drugfree DNA; concentration of drug 14.0 nM and that of DNA 70 nM in 0.01
phosphate buffer, pH 7.0, 5 × 10^3 EDTA and 5% Me2 SO.
DNA-binding experiments were carried out in 0.01M phosphate buffer (pH7), containing EDTA (10^-5 M).

leukemia L1210 = assay: Activity in mice bearing leukemia L1210; format: in vivo; conditions: L1210 ip in CDF1 mouse
Source text: ^e OD, optimal dose of drugs in milligrams/killograms per injection,
administered ip on days 1, 5, and 9, following ip inoculation with
^f % ILS, percent increase in median life span in days, of the
tumorbearing drugtreated dying animals when compared with similar tumor
bearing mice but not treated with drugs. (surv), number of over 60 days
survivors/number of animals tested.

[1] = tested on: RNA synthesis in L1210 cells; assay: Inhibition of RNA synthesis in L1210 ([5-3H]uridine incorporation); format: cell-based, Murine; conditions: [5-3H]uridine incorporation into RNA; read-out: inhibition of synthesis of nucleic acids in L1210 IC50 RNA
Procedure: (§1) ^a Drug concentration (micromolor) for 50% reduction of incorporation
(§2) of [methyl^14 C]thymidine into DNA^b and [5^3 H] uridine into
(§3) RNA^c from the rate of incorporation of the same radionucleotides in
(§4) nondrug treated L1210 cells growing actively in vitro.
(§5) Inhibition of nucleic acid synthesis in L1210 lymphoid leukemia cells by (±)-EPA and it optical isomers are assayed. […] To achieve this, a digestion of the nucleic acid pellet with DNase-free RNase enzyme, prior to final pelleting of the DNA precipitate is made to ensure that no more than ±8% contamination from […] into DNA takes place, and for this the necessary correction is made in the data reported in Table V.

B16 melanoma [2] = assay: B16 melanoma implanted ip, drug ip (ip-ip) in BDF1 mice; format: in vivo
Procedure: (§6) Subcutaneously implanted B16 melanoma in BDF1 mice is a slow growing tumor, but its rate of growth becomes faster when it is implanted ip. […] This is not consistent with data in other tumors; however, in this connection it should be pointed out that the combined effects of drugs (or enantiomers in this case) can be manifested in several ways, i.e., they can be synergistic, additive, or subtractive.
(§7) 0.2 ml of brei (tumor weight/Hank's balanced salt solution, (1:5) of B16
(§8) implanted sc or ip into groups of nine BDF1 mice on day 0. Drugs
(§9) administered iv on day 1 or ip on days 1, 5, and 9, following tumor
(§10) administered ip on days 1, 5, and 9. OD, optimal dose in
(§11) milligrams/milliliter of vehicle, and administered iv or ip in 0.1 mL of
(§12) vehicle (5% v/v Me2 SOsaline). MST, median survival times in days of
(§13) tumor bearing and nondrug treated (control) or drugtreated mice. % ILS,
(§14) percent increase in life span of drug treated groups over the control
(§15) group of test animals, excluding survivors. (surv), number of sixty day
(§16) survivors/number of mice treated with drug.

B16 = assay: Inhibition of growth in vitro of B16 cells; format: cell-based, mouse; conditions: actively growing tumor cells
Procedure: (§17) The analogues are assayed for in vitro growth inhibitory activity against several experimental tumor lines including human and murine leukemia, mouse melanoma, and human lymphoblastic leukemia.

[3] = cited from earlier work
P388/ADR [4] = assay: Antitumor activity against ip implanted P388/ADR in CDF1 mice; format: in vivo; set-up: OD (optimal dose of drugs): unit not given here
Procedure: ^e Optimal dose of drugs.
^ f Median survival time of tumor bearing mice.
^g Percent increase in median life time in days of drugtreated dying
animals vs those of controls; (survivors), number of 60 days
survivors/number of animals tested in the group.
In order to examine a broader spectrum of activity, these optical isomers are tested in two other mouse leukemia cell lines in vivo. One cell line, P388/ADR, is a derivative of the above P388/S made resistant to intercalating agents like […].

C26 colon carcinoma = C26 colon carcinoma implanted in CDF1 mice, drug ip; format: in vivo
Procedure: implantation. Primary colon C26 carcinoma (tripan blue excluding, 2.5
× 10^5 cells/mouse) implanted in CDF1 mice on day 0; drug
as §10, §11, §12, §13, §14, §15, §16

L1210 cells = assay: Inhibition of growth of L1210 cells in culture; format: cell-based, Murine
Procedure: as §17

purified calf thymus DNA = assay: Covalent and noncovalent (intercalative) binding to calf thymus DNA, [DNA base]/[drug] ratios; conditions: 20 mM Tris-HCl pH 7.4, 37° C.
Procedure: ^b Binding to purified calf thymus DNA in 20 mM TrisHCl, ph 7.4 buffe
at 37° C.; A values are molar ratios of DNA to drug based on the
total amount of drug that is bound both intercalatively and covalently to
^c B values are similar ratios assayed on the basis of drugs bound
entirely by covalent bonding to DNA base.

B16 melanoma [5] = assay: B16 melanoma implanted sc, drug iv (sc-iv) in BDF1 mice; format: in vivo
Procedure: as §6, §7, §8, §9, §10, §11, §12, §13, §14, §15, §16

P388/ADR [6] = assay: Inhibition of growth in vitro of P388/ADR cells; format: cell-based, mouse; conditions: actively growing tumor cells
Procedure: as §17

[7] = tested on: DNA synthesis in L1210 cells; assay: Inhibition of DNA synthesis in L1210 ([methyl-14C]thymidine incorporation); format: cell-based, Murine; conditions: [methyl-14C]thymidine incorporation into DNA; read-out: inhibition of synthesis of nucleic acids in L1210 IC50 DNA
Procedure: as §1, §2, §3, §4, §5

CCRF-CEM = assay: In vitro growth inhibition of CCRF-CEM human lymphoblastic leukemia cells; format: cell-based; conditions: purer (90%) form of isomers
Procedure: as §17

[8] = ip days 1, 5, 9, at optimal dose
[9] = B16 ip implanted, drug ip days 1, 5, 9
[10] = B16 sc implanted, drug iv day 1

Cc1c2oc3c(C)ccc(C(=O)N[C@@H]4C(=O)N[C@H](C(C)C)C(=O)N5CCC[C@H]5C(=O)N(C)CC(=O)N(C)[C@@H](C(C)C)C(=O)O[C@@H]4C)c3nc-2c(C(=O)N[C@@H]2C(=O)N[C@H](C(C)C)C(=O)N3CCC[C@H]3C(=O)N(C)CC(=O)N(C)[C@@H](C(C)C)C(=O)O[C@@H]2C)c(N)c1=O [1b(AMD), Actinomycin D] (I: T[dV]P[Sar][NMeV] / II: T[dV]P[Sar][NMeV]; ester I:1-I:C, II:1-II:C; linker I:N-II:N via Actinocin(9to1))
Tm (ΔTm = Tm of DNA-drug complex minus Tm of drug-free DNA) (Calf Thymus DNA): 7.1 ± 0.15
OD (optimal dose) (leukemia L1210; ip days 1, 5, 9): 0.025 milligrams/killograms per inje
% ILS (percent increase in median life span) (leukemia L1210; [8]): 55%
(surv) number of over 60 days survivors/number of animals tested (leukemia L1210; [8]): 0/9
IC50 [1]: 19 ± 6 nM
% ILS (B16 melanoma [2]; [9]): 52%
(surv) sixty day survivors/number of mice treated (B16 melanoma [2]; [9]): 0/9
MST (median survival time) (B16 melanoma [2]; [9]): 29.0 days
OD (optimal dose) (B16 melanoma [2]; B16 ip implanted, drug ip days 1, 5, 9, 0.1 mL vehicle): 0.25 milligrams/milliliter of vehic
activity against ip implanted B16 tumor, in words (B16 melanoma [2]; ip administered): only moderately active
inhibition of growth ID50 B16 (B16): 3.0 ± 1.0 nM
metabolism in vivo [3]: not metabolized in vivo
% ILS (percent increase in median life time vs controls) (P388/ADR [4]; ip qd 1-9, at optimal dose): 33%
(surv) number of 60 days survivors/number of animals tested (P388/ADR [4]; ip qd 1-9, at optimal dose): 0/10
MST (median survival time) (P388/ADR [4]; ip qd 1-9, at optimal dose): 12 days
OD (optimal dose of drugs) (P388/ADR [4]; treated ip qd 1-9): 0.075
% ILS (C26 colon carcinoma; drug ip days 1, 5, 9): 52%
(surv) sixty day survivors/number of mice treated (C26 colon carcinoma; drug ip days 1, 5, 9): 0/10
MST (C26 colon carcinoma; drug ip days 1, 5, 9): 33.5 days
OD (optimal dose) (C26 colon carcinoma; drug ip days 1, 5, 9, 0.1 mL vehicle): 0.30 milligrams/milliliter of vehic
inhibition of growth of L1210 cells in culture; ID50 (L1210 cells): 60.1 ± 9.8 nM
[DNA base]/[drug] A: molar ratio of DNA to drug, total drug bound intercalatively and covalently (purified calf thymus DNA): 26 ± 2
% ILS (B16 melanoma [5]; [10]): 36%
(surv) sixty day survivors/number of mice treated (B16 melanoma [5]; [10]): 0/9
MST (median survival time) (B16 melanoma [5]; [10]): 45.0 days
OD (optimal dose) (B16 melanoma [5]; B16 sc implanted, drug iv day 1, 0.1 mL vehicle): 0.9 milligrams/milliliter of vehic
activity against sc implanted B16 tumor, in words (B16 melanoma [5]; iv administered): only marginally active
inhibition of growth ID50 P388/ADR (P388/ADR [6]): 2500 ± 250 nM
IC50 [7]: 380 ± 28 nM
50% growth inhibitory dose (ID50) (CCRF-CEM): 12.5 nM

— patent US5155209A, “R-(+) enantiomeric form of 7-(2, 3-epoxypropoxy) actinomycin D” (priority 1991, dated 1992)
